These are literature values, as cited in patent US6858744B2, “Dihydoxyhexanoic acid derivatives, their intermediates, and methods of making” (Pfizer Inc., priority 2002, dated 2005).

Consider `O=C(O)C(F)(F)F` [trifluoro-acetic acid], for which the pKa is 0.3.

Usually pKa stands for the negative logarithm of the acid dissociation constant.
